Assay results: patent US7435823B2, “Compounds and methods of use” (Amgen Inc., priority 2004, dated 2008)

test system: Human Umbilical Vein Endothelial cells; assay: HUVEC proliferation assay, VEGF-stimulated; format: cell-based; details: 72 h, read-out: inhibition of VEGF-stimulated HUVEC proliferation
Procedure: HUVEC Proliferation Assay
Human Umbilical Vein Endothelial cells are purchased from Clonetics, Inc., as cryopreserved cells harvested from a pool of donors. These cells, at passage 1, are thawed and expanded in EBM-2 complete medium, until passage 2 or 3. The cells are trypsinized, washed in DMEM+10% FBS+antibiotics, and spun at 1000 rpm for 10 min. Prior to centrifugation of the cells, a small amount is collected for a cell count. After centrifugation, the medium is discarded, and the cells are resuspended in the appropriate volume of DMEM+10% FBS+antibiotics to achieve a concentration of 3×10^5 cells/mL. Another cell count is performed to confirm the cell concentration. The cells are diluted to 3×10^4 cells/mL in DMEM+10% FBS+antibiotics, and 100 μL of cells are added to a 96-well plate. The cells are incubated at 37° C. for 22 h.
Prior to the completion of the incubation period, compound dilutions are prepared. Five-point, five-fold serial dilutions are prepared in DMSO, at concentrations 400-fold greater than the final concentrations desired. 2.5 μL of each compound dilution are diluted further in a total of 1 mL DMEM+10% FBS+antibiotics (400× dilution). Medium containing 0.25% DMSO is also prepared for the 0 μM compound sample. At the 22 h timepoint, the medium is removed from the cells, and 100 μL of each compound dilution is added. The cells are incubated at 37° C. for 2-3 h.
During the compound pre-incubation period, the growth factors are diluted to the appropriate concentrations. Solutions of DMEM+10% FBS+antibiotics, containing either VEGF or bFGF at the following concentrations: 50, 10, 2, 0.4, 0.08, and 0 ng/mL are prepared. For the compound-treated cells, solutions of VEGF at 550 ng/mL or bFGF at 220 ng/mL for 50 ng/mL or 20 ng/mL final concentrations, respectively, are prepared since 10 μL of each will be added to the cells (110 μL final volume). At the appropriate time after adding the compounds, the growth factors are added. VEGF is added to one set of plates, while bFGF is added to another set of plates. For the growth factor control curves, the media on wells B4-G6 of plates 1 and 2 are replaced with media containing VEGF or bFGF at the varying concentrations (50-0 ng/mL). The cells are incubated at 37° C. for an additional 72 h.
At the completion of the 72 h incubation period, the medium is removed, and the cells are washed twice with PBS. After the second wash with PBS, the plates are tapped gently to remove excess PBS, and the cells are placed at −70° C. for at least 30 min. The cells are thawed and analyzed using the CyQuant fluorescent dye (Molecular Probes C-7026), following the manufacturer's recommendations. The plates are read on a Victor/Wallac 1420 workstation at 485 nm/530 nm (excitation/emission). Raw data are collected and analyzed using a 4-parameter fit equation in XLFit. IC50 values are then determined.

Row | Structure (SMILES) | IC50
1 | COc1cc2nccc(Oc3ccc4c(C(=O)Nc5ccc(Cl)cc5)cccc4c3)c2cc1OC [Example 114, 6-(6,7-Dimethoxy-quinolin-4-yloxy)-naphthalene-1-carboxylic acid(4-chloro-phenyl)-amide] | < 500 nM

same assay, conditions: VEGF-stimulated, 72 h, read-out: inhibition of VEGF-stimulated HUVEC proliferation

Row | Structure (SMILES) | IC50
2 | COc1cc2nccc(Oc3ccc4c(C(=O)Nc5ccc(C(F)(F)F)cc5)cccc4c3)c2cc1OC [Example 115, 6-(6,7-dimethoxy-quinolin-4-yloxy)-naphthalene-1-carboxylix acid (4-trifluoromethyl-phenyl)-amide] | < 500 nM
3 | COc1cc2nccc(Oc3ccc4c(NC(=O)c5ccccc5F)cccc4c3)c2cc1OC [Example 120, N-[6-(6,7-dimethoxy-quinolin-4-yloxy)-naphthalen-1-yl]-2-fluoro-benzamide] | < 500 nM
4 | COc1cc2nccc(Oc3ccc4c(NC(=O)c5ccc(Cl)cc5)cccc4c3)c2cc1OC [Example 121, N-[6-(6,7-Dimethoxy-quinolin-4-yloxy)-naphthalen-1-yl]-4-chloro-benzamide] | < 500 nM
5 | COc1cc2nccc(Oc3ccc4c(C(=O)Nc5ccc(Cl)c(C(F)(F)F)c5)cccc4c3)c2cc1OC [Example 117, 6-(6,7-dimethoxy-quinolin-4-yloxy)-naphthalene-1-carboxylix acid (4-chloro-3-trifluoromethyl-phenyl)-amide] | < 500 nM
6 | COc1cc2nccc(Oc3ccc4c(C(=O)Nc5cccc(C(F)(F)F)c5)cccc4c3)c2cc1OC [Example 116, 6-(6,7-dimethoxy-quinolin-4-yloxy)-naphthalene-1-carboxylix acid (3-trifluoromethyl-phenyl)-amide] | < 500 nM

test system: Human peripheral blood lymphocytes; assay: Human mixed lymphocyte reaction (huMLR); format: cell-based; details: 3H-thymidine incorporation, 6 days, read-out: IC50, inhibition of T-cell activation
Procedure: Human Mixed Lymphocyte Reaction (huMLR):
The purpose of this assay is to test the potency of T cell activation inhibitors in an in vitro model of allogeneic T cell stimulation. Human peripheral blood lymphocytes (hPBL; 2×10^5/well) are incubated with mitomycin C-treated B lymphoblastoid cells (JY cell line; 1×10^5/well) as allogeneic stimulators in the presence or absence of dilutions of potential inhibitor compound in 96-well round-bottom tissue culture plates. These cultures are incubated at 37° C. in 5% CO2 for 6 days total. The proliferative response of the hPBL is measured by ^3H-thymidine incorporation overnight between days 5 and 6 after initiation of culture. Cells are harvested onto glass fiber filters and ^3H-thymidine incorporation into DNA is analyzed by liquid scintillation counter.

Row | IC50 | Structure (SMILES)
7 | < 100 nM | COc1cc2c(Oc3ccc4c(C(=O)Nc5ccc(Cl)cc5)cccc4c3F)ccnc2cc1OCCCN1CCOCC1 [Example 816]
8 | < 100 nM | COc1cc2c(Oc3ccc4c(C(=O)Nc5cccc(C(F)(F)F)c5)cccc4c3)ccnc2cc1OCCCN1CCOCC1 [Example 314, 6-((6-(methoxy)-7-((3-(4-morpholinyl)propyl)oxy)-4-quinolinyl)oxy)-N-(3-(trifluoromethyl)phenyl)-1-naphthalenecarboxamide]
9 | < 100 nM | COc1cc2c(Oc3ccc4c(C(=O)Nc5cc(C(C)(C)C)on5)cccc4c3F)ccnc2cc1OCCCN1CCOCC1 [Example 611, N-(5-(1,1-dimethylethyl)-3-isoxazolyl)-5-fluoro-6-((6-(methoxy)-7-((3-(4-morpholinyl)propyl)oxy)-4-quinolinyl)oxy)-1-naphthalenecarboxamide]
10 | < 100 nM | COc1cc2nccc(Oc3ccc4c(C(=O)Nc5cc(C(C)(C)C)on5)cccc4c3F)c2cc1OC [Example 467, 6-((6,7-bis(methoxy)-4-quinolinyl)oxy)-N-(5-(1,1-dimethylethyl)-3-isoxazolyl)-5-fluoro-1-naphthalenecarboxamide]
11 | < 100 nM | COc1cc2c(Oc3ccc4c(C(=O)Nc5cc(C(C)(C)C)[nH]n5)cccc4c3)ccnc2cc1OCCCN1CCOCC1 [Example 325, N-(5-(1,1-dimethylethyl)-1H-pyrazol-3-yl)-6-((6-(methoxy)-7-((3-(4-morpholinyl)propyl)oxy)-4-quinolinyl)oxy)-1-naphthalenecarboxamide]
12 | < 100 nM | COc1ccc(C(C)(C)C)cc1NC(=O)c1cccc2cc(Oc3ccnc4cc(OCCCN5CCOCC5)c(OC)cc34)ccc12 [Example 342, N-(5-(1,1-dimethylethyl)-2-(methoxy)phenyl)-6-((6-(methoxy)-7-((3-(4-morpholinyl)propyl)oxy)-4-quinolinyl)oxy)-1-naphthalenecarboxamide]
13 | < 100 nM | COc1cc2nccc(Oc3ccc4c(C(=O)Nc5ncc(C)s5)cccc4c3)c2cc1OC [Example 289, 6-((6,7-bis(methoxy)-4-quinolinyl)oxy)-N-(5-methyl-1,3-thiazol-2-yl)-1-naphthalenecarboxamide]
14 | < 100 nM | COc1cc2c(Oc3ccc4c(C(=O)Nc5cc(C(C)(C)C)on5)cccc4c3)ncnc2cc1OCCCN1CCCCC1 [Example 732, N-(5-(1,1-dimethylethyl)-3-isoxazolyl)-6-((6-(methoxy)-7-((3-(1-piperidinyl)propyl)oxy)-4-quinazolinyl)oxy)-1-naphthalenecarboxamide]
15 | < 100 nM | COc1cc2nccc(Oc3ccc4c(C(=O)Nc5cc(C(C)(C)C)[nH]n5)cccc4c3)c2cc1OC [Example 589, 6-((6,7-bis(methoxy)-4-quinolinyl)oxy)-N-(5-(1,1-dimethylethyl)-1H-pyrazol-3-yl)-1-naphthalenecarboxamide]
16 | < 100 nM | COc1cc2nccc(Oc3ccc4c(C(=O)Nc5cc(C(F)(F)F)ccn5)cccc4c3)c2cc1OC [Example 657, 6-((6,7-bis(methoxy)-4-quinolinyl)oxy)-N-(4-(trifluoromethyl)-2-pyridinyl)-1-naphthalenecarboxamide]
17 | < 100 nM | COc1cc2nccc(Oc3ccc4c(C(=O)Nc5cc(C(C)(C)C)on5)cccc4c3)c2cc1OC [Example 583, 6-((6,7-bis(methoxy)-4-quinolinyl)oxy)-N-(5-(1,1-dimethylethyl)-3-isoxazolyl)-1-naphthalenecarboxamide]
18 | < 100 nM | COc1cc2nccc(Oc3ccc4c(C(=O)Nc5cc(C(C)(C)C)on5)ccc(C)c4c3)c2cc1OC [Example 541, 6-((6,7-bis(methoxy)-4-quinolinyl)oxy)-N-(5-(1,1-dimethylethyl)-3-isoxazolyl)-4-methyl-1-naphthalenecarboxamide]

test system: not given; assay: not given; details: not given

Row | melting point | Structure (SMILES)
19 | 193.5 to 196.4 °C | CCNC(=O)Nc1ccc2c(F)c(Oc3ccnc4cc(OCCCN5CCOCC5)c(OC)cc34)ccc2c1 [Example 111]
